Assay results from patent publication US12458640B2, “Pyrazolo[3,4-b]pyrazine SHP2 phosphatase inhibitors” (OTSUKA PHARMACEUTICAL CO., LTD., priority 2019, dated 2025).
pIC50: −log10 of the molar value.

Key:
SHP2 = SHP2 (Homo sapiens (Human), UniProt Q06124); assay: Shp2 Biochemical Assay (DiFMUP conversion); settings: 10 pM SHP2, activating peptide pIRS1, DiFMUP substrate; average where more than one data point
Method: SHP2 activity was monitored by measuring the conversion of the surrogate substrate 6,8-difluoromethylumbelliferyl phosphate (DiFMUP) to the fluorescent product, 6,8-difluoromethylumbelliferone (DiFMU).
SHP2 was pre-incubated with test compounds and the activating peptide pIRS1 (H2N-LN(pY)IDLDLV-(PEG)8-LST(pY)ASINFQK-amide) for 30 min, prior to addition of the 6,8-difluoromethylumbelliferyl phosphate (DiFMUP), (Thermo Fisher D6567). Final assay concentrations were 10 pM SHP2, 0.25 μM pIRS1 peptide, 50 μM DiFMUP, 25 mM Bis-Tris propane, pH 7.0, 150 mM NaCl, 0.05% (v/v) Tween-20, 0.5 mM TCEP and 5% (v/v) DMSO. Rates of reaction were then measured over 30 min by monitoring fluorescence on a BMG Pherastar reader at excitation 360 nm/emission 450 nm. IC50 values were calculated from the normalized dose-response plots using four parameter logistic curve fit.

pERK = assay: Cellular pERK Inhibition Assay (phospho-p44/42 MAPK sandwich ELISA); assay type: cell-based; settings: Homo sapiens; HCC827 cells, 0.5 hours compound treatment; average where more than one data point
Method: Cellular pERK Inhibition Assay
HCC827 cells (ATCC, Manassas, USA) were seeded into 96-well plates at a density of 1×10^5 cells/well in RPMI medium supplemented with 10% FBS and incubated 24 h. Compounds were diluted first in DMSO and then into serum-free medium, before being added to cells in triplicate to give a final concentration of 0.1% DMSO. Plates were incubated at 37° C. for 0.5 hours in a humidified atmosphere of 5% CO2 in air.
Following compound treatment, medium was removed and cells were lysed by adding 50 μL of lysis buffer (Cell Signalling Technology, Beverly, USA) to each well. Plates were then incubated at room temperature for 25 minutes with shaking. pERK levels were measured in lysates using the PathScan® phospho-p44/42 MAPK (Thr202/Tyr204) sandwich ELISA (Cell Signalling Technology, Beverly, USA) as per kit instructions. Briefly, 50 μL of cell lysate was added to 50 μL of ELISA sample diluent in a 96-well ELISA plate and incubated overnight at 4° C. Following washing, 100 μL of detection antibody was added per well and the plates incubated for 1 hour at 37° C. Plates were washed again and incubated at 37° C. for 30 minutes with 100 μl of HRP-linked secondary antibody per well. After final washing, 100 μL per well of TMB substrate was added and plates incubated at 37° C. to develop colour. Colour development was stopped by the addition of 100 μL per well of stop solution. Plates were read at 450 nm on a SpectraMax Gemini reader (Molecular Devices, Uckfield, UK).
The average signal from blank wells (no cells added) was subtracted from the signals from each sample well. Levels of pERK were then expressed as “percent of control”, using DMSO treated samples as control. Dose response curves were generated using GraphPad Prism Version 6 (GraphPad Software, La Jolla, USA) and fitted using the four parameter logistic curve fit.

Row | Structure (SMILES) | pIC50 (SHP2) | pIC50 (pERK)
1 | Cc1c2c(Cl)c(-c3n[nH]c4nc(N5CCC6(CC5)CO[C@@H](C)[C@H]6N)c(CO)nc34)ccc2nn1C [Example 21, {6-[(3S,4S)-4-amino-3-methyl-2-oxa-8-azaspiro[4.5]decan-8-yl]-3-(4-chloro-2,3-dimethyl-2H-indazol-5-yl)-1H-pyrazolo[3,4-b]pyrazin-5-yl}methanol] | 7.82 | 8.24
2 | C[C@@H]1OCC2(CCN(c3nc4[nH]nc(-c5ccccc5Cl)c4nc3CO)CC2)[C@@H]1N [Example 24, {6-[(3S,4S)-4-amino-3-methyl-2-oxa-8-azaspiro[4.5]decan-8-yl]-3-(2-chlorophenyl)-1H-pyrazolo[3,4-b]pyrazin-5-yl}methanol] | 7.96 | 8.19
3 | Cc1nc2c(-c3ccc4ncc(N5CCC5)nc4c3Cl)n[nH]c2nc1N1CCC2(CC1)CO[C@@H](C)[C@H]2N [Example 25, (3S,4S)-8-{3-[3-(azetidin-1-yl)-5-chloroquinoxalin-6-yl]-5-methyl-1H-pyrazolo[3,4-b]pyrazin-6-yl}-3-methyl-2-oxa-8-azaspiro[4.5]decan-4-amine] | 7.62 | 7.55
4 | Cc1nc2c(-c3ccc4ncc(N5CCOCC5)nc4c3Cl)n[nH]c2nc1N1CCC2(CC1)CO[C@@H](C)[C@H]2N [Example 26, (3S,4S)-8-{3-[5-chloro-3-(morpholin-4-yl)quinoxalin-6-yl]-5-methyl-1H-pyrazolo[3,4-b]pyrazin-6-yl}-3-methyl-2-oxa-8-azaspiro[4.5]decan-4-amine] | 7.55 | 7.74

The remaining lines, values ahead:

Row | pIC50 (SHP2) | pIC50 (pERK) | Structure (SMILES)
5 | 7.96 | 8.08 | COc1cnc2ccc(-c3n[nH]c4nc(N5CCC6(CC5)CO[C@@H](C)[C@H]6N)c(CO)nc34)c(Cl)c2n1 [Example 22, {6-[(3S,4S)-4-amino-3-methyl-2-oxa-8-azaspiro[4.5]decan-8-yl]-3-(5-chloro-3-methoxyquinoxalin-6-yl)-1H-pyrazolo[3,4-b]pyrazin-5-yl}methanol]
6 | 8.27 | 8.24 | C[C@@H]1OCC2(CCN(c3nc4[nH]nc(-c5cccc(Cl)c5F)c4nc3CO)CC2)[C@@H]1N [Example 23, {6-[(3S,4S)-4-amino-3-methyl-2-oxa-8-azaspiro[4.5]decan-8-yl]-3-(3-chloro-2-fluorophenyl)-1H-pyrazolo[3,4-b]pyrazin-5-yl}methanol]
